Data on 28 compounds can be found in patent US20110053925A1, “Hydroxamate-Based Inhibitors of Deacetylases” (Novartis AG, priority 2009, published 2011).

For orientation: pIC50 means −log10 of the IC50, conventionally taken in molar units. Higher therefore signals a low IC50.

pIC50: −log10 of the molar value.

In the first experiment the target is T1, HDAC-1 (Homo sapiens, UniProt Q13547).
T1 construct: made in house; host or cells: Sf9 or Sf21 insect cells (baculovirus, donor vector pFB-GSTX3)
T1 sequence (Q13547 whole entry, species assumed): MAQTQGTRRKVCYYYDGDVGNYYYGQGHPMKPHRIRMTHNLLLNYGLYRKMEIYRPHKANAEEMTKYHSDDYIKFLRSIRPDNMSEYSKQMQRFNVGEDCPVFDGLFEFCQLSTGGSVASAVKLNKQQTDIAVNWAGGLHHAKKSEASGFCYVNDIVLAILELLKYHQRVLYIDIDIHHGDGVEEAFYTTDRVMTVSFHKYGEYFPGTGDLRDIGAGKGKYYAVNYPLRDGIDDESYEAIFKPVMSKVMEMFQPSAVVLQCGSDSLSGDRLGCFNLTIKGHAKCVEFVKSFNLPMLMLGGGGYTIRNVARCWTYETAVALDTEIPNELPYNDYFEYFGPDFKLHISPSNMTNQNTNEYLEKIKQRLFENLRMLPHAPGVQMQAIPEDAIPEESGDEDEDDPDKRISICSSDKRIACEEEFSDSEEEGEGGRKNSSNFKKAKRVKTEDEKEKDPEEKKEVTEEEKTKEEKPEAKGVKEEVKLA
Nature of the experiment: HDAC Inhibition Assay (purified GST-HDAC protein). It counts as biochemical.
Details: not given
An excerpt:
The baculovirus donor vector pFB-GSTX3 is used to generate a recombinant baculovirus that can express the HDAC polypeptide. Transfer vectors containing the HDAC coding region are transfected into the DH10Bac cell line (GIBCO) and plated on selective agar plates. Colonies without insertion of the fusion sequence into the viral genome (carried by the bacteria) are blue. Single, white colonies are picked and viral DNAs (bacmid) are isolated from the bacteria by standard plasmid purification procedures. Sf9 cells or Sf21 (American Type Culture Collection) cells are then transfected in […] flasks with the viral DNA using Cellfectin reagent.
Virus-containing media is collected from the transfected cell culture and used for infection to increase its titer. Virus-containing media obtained after two rounds of infection is used for large-scale protein expression. For large-scale protein expression 100 cm^2 round tissue culture plates are seeded with 5×10^7 cells/plate and infected with 1 mL of virus-containing media (at an approximately MOI of 5). After 3 days, the cells are scraped off the plate and centrifuged at 500 rpm for 5 minutes. Cell pellets from 10-20, 100 cm^2 plates, are re-suspended in 50 mL of ice-cold lysis buffer (25 mM tris-HCl, pH 7.5, 2 mM EDTA, 1% NP-40, 1 mM DTT, 1 mM P MSF). The cells are stirred on ice for 15 minutes and then centrifuged at 5,000 rpms for 20 minutes.
The centrifuged cell lysate is loaded onto a 2 mL glutathione-sepharose column (Pharmacia) and is washed thrice with 10 mL of 25 mM tris-HCl, pH 7.5, 2 mM EDTA, 1 mM DTT, 200 mM NaCl. The GST-tagged proteins are then eluted by 10 applications (1 mL each) of 25 mM tris-HCl, pH 7.5, 10 mM reduced-glutathione, 100 mM NaCl, 1 mM DTT, 10% glycerol and stored at −70° C.
HDAC assays with purified GST-HDAC protein are carried out in a final volume of 30 μL containing 15 ng of GST-HDAC protein, 20 mM tris-HCl, pH 7.5, 1 mM MnCl2, 10 mM MgCl2, 1 mM DTT, 3 μg/mL poly(Glu,Tyr) 4:1, 1% DMSO, 2.0 μM ATP (γ-[^33P]-ATP 0.1 μCi). The activity is assayed in the presence or absence of inhibitors. […] Subsequently, […] of the reaction mixture are transferred onto EMMOBILON-PVDF membrane (Millipore) previously soaked for 5 minutes with methanol, rinsed with water, then soaked for 5 minutes with 0.5% H3PO4 and mounted on vacuum manifold with disconnected vacuum source. After spotting all samples, a vacuum is connected and each well rinsed with 200 μL 0.5% H3PO4. Membranes are removed and washed four times on a shaker with 1.0% H3PO4, once with ethanol. Membranes are counted after drying at ambient temperature, mounting in Packard TopCount 96-well frame, and addition of 10 μL/well of MICROSCINT™ (Packard).
• Input: 3×4 μL stopped assay on IMMOBILON membrane, not washed • Background (3 wells): assay with H2O instead of enzyme • Positive control (4 wells): 3% DMSO instead of compound • Bath control (1 well): no reaction mix
In each experiment, the actual inhibition by reference compound is used for normalization of IC50 values to the basis of an average value of the reference inhibitor:
Normalized IC50=measured IC50 average ref. IC50/measured ref. IC50
In the case of `O=C(/C=C/c1ccc(CN2CCCC(C3C(=O)Nc4ccccc43)C2)cc1)NO` (stereo not drawn) [Compound 9, (E)-N-Hydroxy-3-{4-[3-(2-oxo-2,3-dihydro-1H-indol-3-yl)-piperidin-1-ylmethyl]-phenyl}-acrylamide], the pIC50 was 8.10. Same read-out and setting: the value for `O=C(/C=C/c1ccc(CN2CCCC(c3c(-c4ccccc4)[nH]c4ccccc34)C2)cc1)NO` (stereo not drawn) [Compound 5, (E)-N-Hydroxy-3-{4-[3-(2-phenyl-1H-indol-3-yl)-piperidin-1-ylmethyl]-phenyl}-acrylamide] was 8.22. The same measure, in the same setting: the value for `O=C(/C=C/c1ccc(CN2CCCC(c3c(-c4ccccc4)[nH]c4ccccc34)C2)c(F)c1)NO` (stereo not drawn) [Compound 15, (E)-3-{3-Fluoro-4-[3-(2-phenyl-1H-indol-3-yl)-piperidin-1-ylmethyl]-phenyl}-N-hydroxy-acrylamide] was 7.96; that for `Cc1[nH]c2ccc(N3CCOCC3)cc2c1C1CCCN(Cc2ccc(/C=C/C(=O)NO)cc2)C1` (stereo not drawn) [Compound 20, (E)-N-Hydroxy-3-{4-[3-(2-methyl-5-morpholin-4-yl-1H-indol-3-yl)-piperidin-1-ylmethyl]-phenyl}-acrylamide] was 8.15; that for `Cc1[nH]c2ccccc2c1C1C/C(=N/O)CN(Cc2ccc(/C=C/C(=O)NO)cc2)C1` (stereo not drawn) [Compound 8, (E)-N-Hydroxy-3-{4-[3-[(Z)-hydroxyimino]-5-(2-methyl-1H-indol-3-yl)-piperidin-1-ylmethyl]-phenyl}-acrylamide] was 7.77. Same read-out and setting: the figure for `O=C(/C=C/c1ccc(CN2CCC(N3CCc4ccccc4C3=O)CC2)cc1)NO` [Compound 41, (E)-N-Hydroxy-3-{4-[4-(1-oxo-3,4-dihydro-1H-isoquinolin-2-yl)-piperidin-1-ylmethyl]-phenyl}-acrylamide] is 7.80; for `Cn1c(N2CCN(Cc3ccc(/C=C/C(=O)NO)cc3)CC2)cccc1=O` [Compound 30, (E)-N-Hydroxy-3-{4-[4-(1-methyl-6-oxo-1,6-dihydro-pyridin-2-yl)-piperazin-1-ylmethyl]-phenyl}-acrylamide] it is 6.77. With `COc1cc(Br)c2oc(C3CCN(Cc4ccc(/C=C/C(=O)NO)cc4)CC3)cc2c1` [Compound 36, (E)-3-{4-[4-(7-Bromo-5-methoxy-benzofuran-2-yl)-piperidin-1-ylmethyl]-phenyl}-N-hydroxy-acrylamide], the pIC50 is 6.30. Compared with the last compound, the pIC50 is 0.47 log units lower. As to `O=C(/C=C/c1ccc(CN2CCN(Cc3ccc(Br)cc3)CC2)cc1)NO` [Compound 27, (E)-3-{4-[4-(4-Bromo-benzyl)-piperazin-1-ylmethyl]-phenyl}-N-hydroxy-acrylamide], the negative logarithm of the IC50 (pIC50) was 6.89. On the same count and under the same terms, the figure for `CS(=O)(=O)N1CC2(CCN(Cc3ccc(/C=C/C(=O)NO)cc3)CC2)c2ccccc21` [Compound 39] is 7.57; for `Cc1cccc(S(=O)(=O)N2CCN(Cc3ccc(/C=C/C(=O)NO)cc3)CC2)c1` [Compound 56, (E)-N-Hydroxy-3-{4-[4-(toluene-3-sulfonyl)-piperazin-1-ylmethyl]-phenyl}-acrylamide] it is 6.59. The same measure, in the same setting: the value for `O=C(/C=C/c1ccc(CN2CCC3(CCc4ccccc4O3)CC2)cc1)NO` [Compound 38, (E)-N-Hydroxy-3-(4-(spiro[chroman-2,4′-piperidine]-1′-ylmethyl)phenyl)acrylamide] was 6.96; that for `O=C(/C=C/c1ccc(CN2CCN(C(=O)C3CCCCC3)c3ccccc32)cc1)NO` [Compound 60, (E)-3-[4-(4-Cyclohexanecarbonyl-3,4-dihydro-2H-quinoxalin-1-ylmethyl)-phenyl]-N-hydroxy-acrylamide] was 6.66.

Regarding `CC(=O)N(C)CC1(c2ccccc2)CCN(Cc2ccc(/C=C/C(=O)NO)cc2)CC1` [Compound 42, (E)-3-(4-{4-[(Acetyl-methyl-amino)-methyl]-4-phenyl-piperidin-1-ylmethyl}-phenyl)-N-hydroxy-acrylamide], the pIC50 was 7.15. This pIC50 lies 0.49 log units higher than the previous one. Still for that read-out and setting: the figure for `Cc1ccc(S(=O)(=O)N2CCN(Cc3ccc(/C=C/C(=O)NO)cc3)CC2)cc1` [Compound 55, (E)-N-Hydroxy-3-{4-[4-(toluene-4-sulfonyl)-piperazin-1-ylmethyl]-phenyl}-acrylamide] is 6.64. On the same count and under the same terms, the figure for `CC(C)(C)CC(=O)N1CCN(Cc2ccc(/C=C/C(=O)NO)cc2)CC1` [Compound 53, (E)-3-{4-[4-(3,3-Dimethyl-butyryl)-piperazin-1-ylmethyl]-phenyl}-N-hydroxy-acrylamide] is 6.80; for `O=C(/C=C/c1ccc(CN2CCC(N3CCNC3=O)CC2)cc1)NO` [Compound 44, (E)-N-Hydroxy-3-{4-[4-(2-oxo-imidazolidin-1-yl)-piperidin-1-ylmethyl]-phenyl}-acrylamide] it is 7.30. Still for that read-out and setting: the figure for `O=C(/C=C/c1ccc(CN2CCN(C(=O)OCc3ccccc3)CC2)cc1)NO` [Compound 29, 4-[4-((E)-2-Hydroxycarbamoyl-vinyl)-benzyl]-piperazine-1-carboxylic acid benzyl ester] is 6.85; for `O=C(/C=C/c1ccc(CN2CCC(Cc3ccccc3)CC2)cc1)NO` [Compound 49, (E)-3-[4-(4-Benzyl-piperidin-1-ylmethyl)-phenyl]-N-hydroxy-acrylamide] it is 7.43. With `O=C(/C=C/c1ccc(CN2CCOC(c3nc(-c4ccccc4)no3)C2)cc1)NO` (stereo not drawn) [Compound 25, (E)-N-Hydroxy-3-{4-[2-(3-phenyl-[1,2,4]oxadiazol-5-yl)-morpholin-4-ylmethyl]-phenyl}-acrylamide], the pIC50 is 7.41. On to `O=C(CCc1ccc(CN2CCCC(c3c(-c4ccccc4)[nH]c4ccccc34)C2)cc1)NO` (stereo not drawn) [Compound 16, N-Hydroxy-3-{4-[3-(2-phenyl-1H-indol-3-yl)-piperidin-1-ylmethyl]-phenyl}-propionamide], for which the pIC50 is 8.66.

Regarding `O=C(/C=C/c1ccc(CN2CCOCC2)cc1)NO` [Compound 47, (E)-N-Hydroxy-3-(4-morpholin-4-ylmethyl-phenyl)-acrylamide], the pIC50 is 6.52. Still for that read-out and setting: the figure for `O=C(/C=C/c1ccc(CN2CCN(C(=O)Nc3ccccc3)c3ccccc32)cc1)NO` [Compound 59, 4-[4-((E)-2-Hydroxycarbamoyl-vinyl)-benzyl]-3,4-dihydro-2H-quinoxaline-1-carboxylic acid phenylamide] is 6.49; for `O=C(/C=C/c1ccc(CN2CCN(Cc3ccccc3)CC2)cc1)NO` [Compound 26, (E)-3-[4-(4-Benzyl-piperazin-1-ylmethyl)-phenyl]-N-hydroxy-acrylamide] it is 7.00; for `O=C(/C=C/c1ccc(CN2CCC(c3ccc(Cl)cc3CN3CCCC3=O)CC2)cc1)NO` [Compound 40, (E)-3-(4-{4-[4-Chloro-2-(2-oxo-pyrrolidin-1-ylmethyl)-phenyl]-piperidin-1-ylmethyl}-phenyl)-N-hydroxy-acrylamide] it is 7.57. Regarding `O=C(/C=C/c1ccc(CN2CCN(C(=O)C3CCCCC3)CC2)cc1)NO` [Compound 54, (E)-3-[4-(4-Cyclohexanecarbonyl-piperazin-1-ylmethyl)-phenyl]-N-hydroxy-acrylamide], the pIC50 is 6.89. The same measure, in the same setting: the value for `O=C(/C=C/c1ccc(CN2CCC3(CC2)OC(=O)Nc2ccccc23)cc1)NO` [Compound 34] was 7.49.

The subject of a further experiment is HCT116. Nature of the experiment: HCT116 IC50. It counts as cell-based. Particulars: Homo sapiens, HCT-116.
In turn, `O=C(/C=C/c1ccc(CN2CCCC(C3C(=O)Nc4ccccc43)C2)cc1)NO` (stereo not drawn) [Compound 9, (E)-N-Hydroxy-3-{4-[3-(2-oxo-2,3-dihydro-1H-indol-3-yl)-piperidin-1-ylmethyl]-phenyl}-acrylamide] had a pIC50 of 7.32. On the same count and under the same terms, the value for `O=C(/C=C/c1ccc(CN2CCCC(c3c(-c4ccccc4)[nH]c4ccccc34)C2)cc1)NO` (stereo not drawn) [Compound 5, (E)-N-Hydroxy-3-{4-[3-(2-phenyl-1H-indol-3-yl)-piperidin-1-ylmethyl]-phenyl}-acrylamide] was 8.68. Still for that read-out and setting: the figure for `O=C(/C=C/c1ccc(CN2CCCC(c3c(-c4ccccc4)[nH]c4ccccc34)C2)c(F)c1)NO` (stereo not drawn) [Compound 15, (E)-3-{3-Fluoro-4-[3-(2-phenyl-1H-indol-3-yl)-piperidin-1-ylmethyl]-phenyl}-N-hydroxy-acrylamide] is 8.28; for `Cc1[nH]c2ccc(N3CCOCC3)cc2c1C1CCCN(Cc2ccc(/C=C/C(=O)NO)cc2)C1` (stereo not drawn) [Compound 20, (E)-N-Hydroxy-3-{4-[3-(2-methyl-5-morpholin-4-yl-1H-indol-3-yl)-piperidin-1-ylmethyl]-phenyl}-acrylamide] it is 7.89.

For the compound `Cc1[nH]c2ccccc2c1C1C/C(=N/O)CN(Cc2ccc(/C=C/C(=O)NO)cc2)C1` (stereo not drawn) [Compound 8, (E)-N-Hydroxy-3-{4-[3-[(Z)-hydroxyimino]-5-(2-methyl-1H-indol-3-yl)-piperidin-1-ylmethyl]-phenyl}-acrylamide], the negative logarithm of the IC50 (pIC50) was 6.52.

As to `CC(C)(C)c1[nH]c2ccccc2c1[C@@H]1CCCN(Cc2ccc(/C=C/C(=O)NO)cc2F)C1` [Compound 11, (E)-3-{4-[(S)-3-(2-tert-Butyl-1H-indol-3-yl)-piperidin-1-ylmethyl]-3-fluoro-phenyl}-N-hydroxy-acrylamide], the pIC50 was 9.10.
